Data as given in US8541408B2, “Aminodihydrothiazine derivatives substituted with a cyclic group” (Shionogi & Co., Ltd., priority 2007, dated 2013).

Molecular target: Recombinant human BACE-1 (Homo sapiens (Human), UniProt P56817)
Assay: Assay of β-secretase-inhibiting activity
Type: biochemical
Details: substrate peptide 18 nM, BACE-1 7.4 nM, sodium acetate buffer pH 5.0, 30° C. for 3 hours

Recombinant human BACE-1, sequence (P56817 46-501): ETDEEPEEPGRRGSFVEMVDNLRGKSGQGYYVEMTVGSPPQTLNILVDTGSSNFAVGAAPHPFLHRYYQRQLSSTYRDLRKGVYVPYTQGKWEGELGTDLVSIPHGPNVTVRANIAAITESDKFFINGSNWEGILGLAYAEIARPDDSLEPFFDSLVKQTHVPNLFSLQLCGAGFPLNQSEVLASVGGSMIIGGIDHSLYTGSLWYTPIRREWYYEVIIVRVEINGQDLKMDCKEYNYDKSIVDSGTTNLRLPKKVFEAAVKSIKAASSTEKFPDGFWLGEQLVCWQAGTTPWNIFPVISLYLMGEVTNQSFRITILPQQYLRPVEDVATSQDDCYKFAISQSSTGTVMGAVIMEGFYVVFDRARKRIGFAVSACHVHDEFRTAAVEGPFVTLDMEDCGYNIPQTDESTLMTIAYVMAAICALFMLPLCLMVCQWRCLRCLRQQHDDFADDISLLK

For CC1(C)C[C@@](C)(c2cncc(NC(=O)c3ccc(Cl)cn3)c2)N=C(N)S1 [Compound 604], the IC50 was at most 1000 nM.
